Experimental data: patent US20250230155A1 (Vanderbilt University, priority 2021, published 2025)

Molecular target: T1, human mAChR M4 (Homo sapiens, UniProt P08173)
T1 construct: expressed in transfected cells
T1 sequence (P08173 1-479): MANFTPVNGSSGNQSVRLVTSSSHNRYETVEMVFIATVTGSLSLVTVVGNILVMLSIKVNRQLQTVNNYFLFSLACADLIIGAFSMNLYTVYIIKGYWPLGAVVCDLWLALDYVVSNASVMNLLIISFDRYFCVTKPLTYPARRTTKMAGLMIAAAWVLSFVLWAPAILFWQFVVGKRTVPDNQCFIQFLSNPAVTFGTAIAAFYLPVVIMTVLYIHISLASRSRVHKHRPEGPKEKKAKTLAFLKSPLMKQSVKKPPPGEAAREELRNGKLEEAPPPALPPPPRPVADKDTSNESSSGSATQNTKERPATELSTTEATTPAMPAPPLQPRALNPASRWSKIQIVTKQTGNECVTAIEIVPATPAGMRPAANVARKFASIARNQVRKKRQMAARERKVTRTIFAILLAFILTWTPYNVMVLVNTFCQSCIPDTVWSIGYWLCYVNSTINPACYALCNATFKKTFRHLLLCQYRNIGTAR
Experiment: mAChR M4 cell-based functional assay (calcium mobilization, CHO-K1 hM4-Gqi5 cells)
Conditions: for Emax at 30 µM: CHO-K1, % ACh maximum at 30 μM, human M4; for EC50: positive allosteric modulator activity, increase in the EC20 acetylcholine response, CHO-K1 hM4-Gqi5 cells, read-out: Human M4 EC50; for Emax: CHO-K1
Outline: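 Fluorescent calcium read-out (Fluo-4 AM, FDSS, 1 Hz) in hM4-Gqi5 CHO-K1 cells, 11-point 1:3 compound series. Agonism scored on compound addition, PAM activity as increase of the 144 s EC20 acetylcholine response, antagonism as decrease of the 230 s EC80 response; four-parameter logistic fits give EC50 and Emax.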

Row | Structure (SMILES) | Emax at 30 µM [%] | EC50 [nM] | Emax [%]
1 | CCn1cc(-c2cnc3c(c2)CN(c2ncc(C#N)cc2C)CC3)cn1 [compound 105, 6-[3-(1-ethylpyrazol-4-yl)-7,8-dihydro-5H-1,6-naphthyridin-6-yl]-5-methyl-pyridine-3-carbonitrile] | 98 | 263 | 
2 | Cc1cc(C#N)cnc1N1CCc2ncc(-c3cnn(-c4ccc(F)cc4)c3)cc2C1 [compound 106, 6-[3-[1-(4-fluorophenyl)pyrazol-4-yl]-7,8-dihydro-5H-1,6-naphthyridin-6-yl]-5-methyl-pyridine-3-carbonitrile] | 33 | 1140 | 
3 | Cc1cc(C#N)cnc1N1CCc2ncc(-c3c(C)nn(C)c3C)cc2C1 [compound 107, 5-methyl-6-[3-(1,3,5-trimethylpyrazol-4-yl)-7,8-dihydro-5H-1,6-naphthyridin-6-yl]pyridine-3-carbonitrile] | 98 | 142 | 
4 | CCCn1cc(-c2cnc3c(c2)CN(c2ncc(C#N)cc2C)CC3)cn1 [compound 108, 5-methyl-6-[3-(1-propylpyrazol-4-yl)-7,8-dihydro-5H-1,6-naphthyridin-6-yl]pyridine-3-carbonitrile] | 90 | 330 | 
5 | Cc1cc(C#N)cnc1N1CCc2ncc(-c3c(C)noc3C)cc2C1 [compound 109, 6-[3-(3,5-dimethylisoxazol-4-yl)-7,8-dihydro-5H-1,6-naphthyridin-6-yl]-5-methyl-pyridine-3-carbonitrile] | 90 | 167 | 
6 | Cc1cc(C#N)cnc1N1CCc2ncc(Nc3cc(F)ccc3F)cc2C1 [compound 110, 6-[3-(2,5-difluoroanilino)-7,8-dihydro-5H-1,6-naphthyridin-6-yl]-5-methyl-pyridine-3-carbonitrile] | 95 | 167 | 
7 | Cc1cc(C#N)cnc1N1CCc2ncc(Nc3c(F)cccc3Cl)cc2C1 [compound 111, 6-[3-(2-chloro-6-fluoro-anilino)-7,8-dihydro-5H-1,6-naphthyridin-6-yl]-5-methyl-pyridine-3-carbonitrile] | 93 | 345 | 
8 | Cc1cc(C#N)cnc1N1CCc2ncc(-c3cnn(CC(C)C)c3)cc2C1 [compound 112, 6-[3-(1-isobutylpyrazol-4-yl)-7,8-dihydro-5H-1,6-naphthyridin-6-yl]-5-methyl-pyridine-3-carbonitrile] | 76 | 465 | 
9 | Cc1cc(C#N)cnc1N1CCc2ncc(Nc3cccc(C(F)(F)F)c3F)cc2C1 [compound 113, 6-[3-[2-fluoro-3-(trifluoromethyl)anilino]-7,8-dihydro-5H-1,6-naphthyridin-6-yl]-5-methyl-pyridine-3-carbonitrile] | 98 | 1450 | 
10 | Cc1cc(C#N)cnc1N1CCc2ncc(Nc3cccc(Cl)c3F)cc2C1 [compound 114, 6-[3-(3-chloro-2-fluoro-anilino)-7,8-dihydro-5H-1,6-naphthyridin-6-yl]-5-methyl-pyridine-3-carbonitrile] | 100 | 969 | 
11 | Cc1ccc(F)c(Nc2cnc3c(c2)CN(c2ncc(C#N)cc2C)CC3)c1 [compound 115, 6-[3-(2-fluoro-5-methyl-anilino)-7,8-dihydro-5H-1,6-naphthyridin-6-yl]-5-methyl-pyridine-3-carbonitrile] | 92 | 995 | 
12 | Cc1cc(C#N)cnc1N1CCc2ncc(Nc3cc(F)cc(F)c3F)cc2C1 [compound 116, 5-methyl-6-[3-(2,3,5-trifluoroanilino)-7,8-dihydro-5H-1,6-naphthyridin-6-yl]pyridine-3-carbonitrile] | 95 | 336 | 
13 | Cc1cnc2c(c1)CN(c1nnc(C#N)c(C)c1C)CC2 [compound 117, 4,5-dimethyl-6-(3-methyl-7,8-dihydro-5H-1,6-naphthyridin-6-yl)pyridazine-3-carbonitrile] |  | 3650 | 55
14 | Cc1c(C#N)nnc(N2CCc3ncccc3C2)c1C [compound 118, 6-(7,8-dihydro-5H-1,6-naphthyridin-6-yl)-4,5-dimethyl-pyridazine-3-carbonitrile] |  | 2820 | 92
15 | Cc1c(C#N)nnc(N2CCc3ncc(Nc4cccnc4F)cc3C2)c1C [compound 119, 6-[3-[(2-fluoro-3-pyridyl)amino]-7,8-dihydro-5H-1,6-naphthyridin-6-yl]-4,5-dimethyl-pyridazine-3-carbonitrile] | 82 | 191 | 
16 | Cc1cc(C(=O)NCc2cn3ccccc3n2)cnc1N1CCc2ncccc2C1 [compound 120] | 64 | 2680 | 

Row | Structure (SMILES) | Emax at 30 µM [%] | EC50 [nM] | Emax [%]
17 | Cc1cc(C(=O)Nc2ccncc2)cnc1N1CCc2ncccc2C1 [compound 121, 6-(7,8-dihydro-5H-1,6-naphthyridin-6-yl)-5-methyl-N-(4-pyridyl)pyridine-3-carboxamide] | 70 | 544 | 
18 | Cc1cc(C(=O)NC2CCOCC2)cnc1N1CCc2ncccc2C1 [compound 122, 6-(7,8-dihydro-5H-1,6-naphthyridin-6-yl)-5-methyl-N-tetrahydropyran-4-yl-pyridine-3-carboxamide] | 55 | ≥ 10000 | 
19 | Cc1cc(C(=O)NCc2ccno2)cnc1N1CCc2ncccc2C1 [compound 123, 6-(7,8-dihydro-5H-1,6-naphthyridin-6-yl)-N-(isoxazol-5-ylmethyl)-5-methyl-pyridine-3-carboxamide] | 82 | ≥ 10000 | 
20 | Cc1cc(C(=O)NC23CC(F)(C2)C3)cnc1N1CCc2ncccc2C1 [compound 124, 6-(7,8-dihydro-5H-1,6-naphthyridin-6-yl)-N-(3-fluoro-1-bicyclo[1.1.1]pentanyl)-5-methyl-pyridine-3-carboxamide] | 78 | 2170 | 
21 | Cc1cc(C(=O)NCc2nc3ccccc3s2)cnc1N1CCc2ncccc2C1 [compound 125, N-(1,3-benzothiazol-2-ylmethyl)-6-(7,8-dihydro-5H-1,6-naphthyridin-6-yl)-5-methyl-pyridine-3-carboxamide] | 78 | 856 | 
22 | Cc1cc(C(=O)NCCc2ccncc2)cnc1N1CCc2ncccc2C1 [compound 126, 6-(7,8-dihydro-5H-1,6-naphthyridin-6-yl)-5-methyl-N-[2-(4-pyridyl)ethyl]pyridine-3-carboxamide] | 63 | 9080 | 
23 | Cc1ncc(CNC(=O)c2cnc(N3CCc4ncccc4C3)c(C)c2)s1 [compound 127, 6-(7,8-dihydro-5H-1,6-naphthyridin-6-yl)-5-methyl-N-[(2-methylthiazol-5-yl)methyl]pyridine-3-carboxamide] | 67 | 2620 | 
24 | Cc1cc(C(=O)NCc2csc3ccccc23)cnc1N1CCc2ncccc2C1 [compound 128, N-(benzothiophen-3-ylmethyl)-6-(7,8-dihydro-5H-1,6-naphthyridin-6-yl)-5-methyl-pyridine-3-carboxamide] | 74 | 1150 | 
25 | Cc1cc(CNC(=O)c2cnc(N3CCc4ncccc4C3)c(C)c2)ccn1 [compound 129, 6-(7,8-dihydro-5H-1,6-naphthyridin-6-yl)-5-methyl-N-[(2-methyl-4-pyridyl)methyl]pyridine-3-carboxamide] | 61 | 3340 | 
26 | Cc1cnccc1CNC(=O)c1cnc(N2CCc3ncccc3C2)c(C)c1 [compound 130, 6-(7,8-dihydro-5H-1,6-naphthyridin-6-yl)-5-methyl-N-[(3-methyl-4-pyridyl)methyl]pyridine-3-carboxamide] | 82 | 507 | 
27 | Cc1cc(C(=O)NCc2ccnc3ccccc23)cnc1N1CCc2ncccc2C1 [compound 131, 6-(7,8-dihydro-5H-1,6-naphthyridin-6-yl)-5-methyl-N-(4-quinolylmethyl)pyridine-3-carboxamide] | 57 | 876 | 
28 | Cc1ccc(Nc2cnc3c(c2)CN(c2ncc(C#N)cc2C)CC3)c(F)n1 [compound 132, 6-[3-[(2-fluoro-6-methyl-3-pyridyl)amino]-7,8-dihydro-5H-1,6-naphthyridin-6-yl]-5-methyl-pyridine-3-carbonitrile] | 96 | 234 | 
29 | COC(=O)c1cnc(N2CCc3ncc(Br)cc3C2)c(C)c1 [compound 133, methyl 6-(3-bromo-7,8-dihydro-5H-1,6-naphthyridin-6-yl)-5-methyl-pyridine-3-carboxylate] |  | 158 | 100
30 | Cc1cc(C(=O)NCc2cnc(Cl)s2)cnc1N1CCc2ncccc2C1 [compound 134, N-[(2-chlorothiazol-5-yl)methyl]-6-(7,8-dihydro-5H-1,6-naphthyridin-6-yl)-5-methyl-pyridine-3-carboxamide] | 69 | 1640 | 
31 | Cc1c(C(=O)NCc2ccncc2)nnc(N2CCc3ncccc3C2)c1C [compound 135, 6-(7,8-dihydro-5H-1,6-naphthyridin-6-yl)-4,5-dimethyl-N-(4-pyridylmethyl)pyridazine-3-carboxamide] | 84 | 1800 | 
